Measured values reported in the NIST ThermoML archive (doi:10.1021/je060271a).
± gives the expanded uncertainty stated by the source.

Conditions: 303.15 K, Liquid, Vibrating tube method

CCCCCC(=O)OCC(COC(=O)CCCCC)(COC(=O)CCCCC)COC(=O)CCCCC [pentaerythritol tetrahexanoate]
Conditions	mass density [kg/m3]
5137.3 kPa	991.5 ± 1.2
5153 kPa	991.6 ± 1.2
5168.7 kPa	991.7 ± 1.2
5185 kPa	991.7 ± 1.2
5201.1 kPa	991.6 ± 1.2
5220.3 kPa	991.6 ± 1.2
5236.1 kPa	991.6 ± 1.2
5252.7 kPa	991.7 ± 1.2
5271.9 kPa	991.8 ± 1.2
5288.3 kPa	991.7 ± 1.2
5304.7 kPa	991.7 ± 1.2
5321.5 kPa	991.6 ± 1.2
5341.1 kPa	991.8 ± 1.2
5357.3 kPa	991.8 ± 1.2
5683.2 kPa	992 ± 1.2
5701.2 kPa	992 ± 1.2
5722.4 kPa	992 ± 1.2
5740.3 kPa	992 ± 1.2
5758.4 kPa	992.1 ± 1.2
5780 kPa	992.1 ± 1.2
5798.2 kPa	992 ± 1.2
5816.3 kPa	992.1 ± 1.2
5835 kPa	992.1 ± 1.2
5853.7 kPa	992.1 ± 1.2
5912.7 kPa	992.1 ± 1.2
6092.3 kPa	992.3 ± 1.2
6130.7 kPa	992.2 ± 1.2
6149.9 kPa	992.4 ± 1.2
6172.7 kPa	992.3 ± 1.2
6191.3 kPa	992.3 ± 1.2
6210.7 kPa	992.3 ± 1.2
6233.5 kPa	992.3 ± 1.2
6252.4 kPa	992.3 ± 1.2
6271.5 kPa	992.4 ± 1.2
6294.4 kPa	992.3 ± 1.2
6313.7 kPa	992.3 ± 1.2
6333.6 kPa	992.5 ± 1.2
6354.3 kPa	992.4 ± 1.2
6373.3 kPa	992.4 ± 1.2
6396.3 kPa	992.4 ± 1.2
6415.5 kPa	992.5 ± 1.2
6434.7 kPa	992.6 ± 1.2
6457.8 kPa	992.5 ± 1.2
6476.9 kPa	992.5 ± 1.2
6496.6 kPa	992.5 ± 1.2
6516.3 kPa	992.5 ± 1.2
6539.1 kPa	992.5 ± 1.2
6558.1 kPa	992.5 ± 1.2
6581.1 kPa	992.6 ± 1.2
6600.9 kPa	992.6 ± 1.2
6621.4 kPa	992.5 ± 1.2
6640.4 kPa	992.6 ± 1.2
6659.3 kPa	992.6 ± 1.2
6681.6 kPa	992.6 ± 1.2
6699.9 kPa	992.6 ± 1.2
6718.5 kPa	992.7 ± 1.2
6740.3 kPa	992.7 ± 1.2
6758.3 kPa	992.6 ± 1.2
6776.2 kPa	992.7 ± 1.2
6797.8 kPa	992.7 ± 1.2
6815.4 kPa	992.7 ± 1.2
6833.2 kPa	992.7 ± 1.2
6854.1 kPa	992.7 ± 1.2
6871.8 kPa	992.8 ± 1.2
6889.4 kPa	992.6 ± 1.2
6907.3 kPa	992.8 ± 1.2
6924.8 kPa	992.7 ± 1.2
6946.2 kPa	992.8 ± 1.2
6963.8 kPa	992.8 ± 1.2
6981.6 kPa	992.8 ± 1.2
6999.8 kPa	992.8 ± 1.2
7021.5 kPa	992.9 ± 1.2
7039.5 kPa	992.8 ± 1.2
7057.3 kPa	992.9 ± 1.2
7079.2 kPa	992.9 ± 1.2
7097.5 kPa	992.8 ± 1.2
7116 kPa	992.9 ± 1.2
7134.1 kPa	992.9 ± 1.2
7155.9 kPa	992.9 ± 1.2
7174.4 kPa	992.9 ± 1.2
7192.5 kPa	993 ± 1.2
7214.4 kPa	993 ± 1.2
7232.7 kPa	993 ± 1.2
7251.4 kPa	992.9 ± 1.2
7273.7 kPa	993 ± 1.2
7292.3 kPa	993 ± 1.2
7310.6 kPa	993 ± 1.2
7333.2 kPa	993 ± 1.2
7352.4 kPa	993 ± 1.2
7371.4 kPa	993.1 ± 1.2
7394.2 kPa	993.1 ± 1.2
7413.2 kPa	993 ± 1.2
7432.5 kPa	993.1 ± 1.2
7451.7 kPa	993.1 ± 1.2
7474.8 kPa	993.1 ± 1.2
7494.2 kPa	993.1 ± 1.2
7513.5 kPa	993.1 ± 1.2
7533.2 kPa	993.2 ± 1.2
7556.5 kPa	993.2 ± 1.2
7576.2 kPa	993.2 ± 1.2
7596.7 kPa	993.2 ± 1.2
7616.7 kPa	993.2 ± 1.2
7640.5 kPa	993.3 ± 1.2
7660.7 kPa	993.2 ± 1.2
7680.6 kPa	993.3 ± 1.2
7700.8 kPa	993.4 ± 1.2
7724.8 kPa	993.2 ± 1.2
7744.8 kPa	993.2 ± 1.2
7765.4 kPa	993.3 ± 1.2
7785.7 kPa	993.3 ± 1.2
7809.9 kPa	993.4 ± 1.2
7830.6 kPa	993.4 ± 1.2
7851.3 kPa	993.3 ± 1.2
7876.2 kPa	993.3 ± 1.2
7897.2 kPa	993.3 ± 1.2
7917.7 kPa	993.4 ± 1.2
7938.5 kPa	993.5 ± 1.2
7963.1 kPa	993.4 ± 1.2
7984.2 kPa	993.4 ± 1.2
8005.2 kPa	993.6 ± 1.2
8026.6 kPa	993.4 ± 1.2
8051.8 kPa	993.5 ± 1.2
8072.9 kPa	993.6 ± 1.2
8094.6 kPa	993.3 ± 1.2
8120 kPa	993.5 ± 1.2
8141.2 kPa	993.6 ± 1.2
8163.1 kPa	993.5 ± 1.2
8186 kPa	993.6 ± 1.2
8208.3 kPa	993.6 ± 1.2
8233.8 kPa	993.6 ± 1.2
8255.4 kPa	993.6 ± 1.2
8277.5 kPa	993.6 ± 1.2
8303.5 kPa	993.7 ± 1.2
8325.2 kPa	993.6 ± 1.2
8347.2 kPa	993.7 ± 1.2
8373.2 kPa	993.7 ± 1.2
8395.6 kPa	993.7 ± 1.2
8417.7 kPa	993.7 ± 1.2
8440.3 kPa	993.7 ± 1.2
8467.9 kPa	993.8 ± 1.2
8491.4 kPa	993.8 ± 1.2
8513.6 kPa	993.8 ± 1.2
8536.1 kPa	993.9 ± 1.2
8563.5 kPa	993.6 ± 1.2
